Measured values taken from patent US4525589A, “Isoquinolinesulfonyl derivatives” (Asahi Kasei Kogyo Kabushiki Kaisha, priority 1981, dated 1985).

Key:
[1] = system: vertebral artery; assay: Effect on blood flow volume of vertebral artery of dog; type: in vivo, dog of mixed breed; conditions: 1 mg/Kg intravenous; for change in vivo at 1 mg/kg: Canis lupus familiaris, read-out: Increased Blood Flow Volume in Vertebral Artery
Protocol: (§1) The effect of the isoquinolinesulfonyl derivatives and the pharmaceutically acceptable acid addition salts of this invention on the vasodilatation of the femoral and vertebral arteries can be measured by anesthetizing a dog of mixed breed weighting 8 to 15 Kg by an intravenous administration of 35 mg/Kg of pentbarbital, providing an acute type probe (a product of Nippon Koden K.K., Japan) with the femoral and vertebral arteries, administering the isoquinolinesulfonyl derivatives and the pharmaceutically acceptable acid addition salts to the femoral vein through a polyethylene tube inserted into the femoral vein side chain and measuring the blood flow volume with an electromagnetic flowmeter (a product of Nippon Koden K.K., Japan, "MF-27"). Among the isoquinolinesulfonyl compounds of Formula (I) of this invention, those with l=0 and the [drawing 37] group show a high action for increasing blood flow and simultaneously a selectivity to vertebral arteries. For example, when 1 mg/Kg of 1-(5-isoquinolinesulfonyl)piperazine, i.e., Compound (35) was intravenously administered, the increased blood flow volumes in the vertebral artery and in the femoral artery were 98% and 65%, respectively. Also the isoquinolinesulfonyl compounds of Formula (I) of this invention with l=1 and one of the R2 and R3 groups=a hydrogen atom show a continuing blood flow increase. With 1 mg/Kg of N-(2-aminoethyl)-5-isoquinolinesulfonamide, i.e., Compound (1), an increase in the blood flow volume in the vertebral artery was continued for at least 30 minutes.
(§2) The effect on the vasodilatation of the femoral and vertebral arteries was measured by anesthetizing a dog of mixed breed weighing 8 to 15 Kg by an intravenous administration of 35 mg/Kg of pentabarbital, providing an acute type probe (a product of Nippon Koden K.K., Japan) with the femoral and vertebral arteries, administering the 5-isoquinolinesulfonyl derivatives and their pharmaceutically acceptable acid addition salts to the femoral vein through a polyethylene tube inserted into the femoral vein side chain and measuring the blood flow volume with an electromagnetic blood flowmeter (a product of Nippon Koden K.K., Japan, "MF-27").

[2] = Acute toxicity, intravenous administration to male ddY-strain mice; conditions: mouse, in vivo
Protocol: The acute toxicity of the 5-isoquinolinesulfonyl derivatives and their pharmaceutically acceptable acid addition salts were measured by giving male ddY-strain mice an intravenous administration.

[3] = system: femoral artery; assay: Effect on blood flow volume of femoral artery of dog; type: in vivo, dog of mixed breed; conditions: 1 mg/Kg intravenous, anesthetized dog; for change in vivo at 1 mg/kg: Canis lupus familiaris, iv, read-out: Increased Blood Flow Volume in Femoral Artery
Protocol: as §1, §2

[4] = system: mesenteric artery; assay: Relaxation of mesenteric artery (helical strips contracted with KCl, organ bath); parameters: species or system rabbit (home bred, Japanese species); conditions: Oryctolagus cuniculus; concentration for 50% relaxation; KCl 15~20 mM contraction; read-out: Relaxation of Mesenteric Artery ED50
Protocol: After a home bred rabbit of a Japanese species weighing about 3 Kg was subjected to bloodletting, resulting in death and then to abdominal incision, the mesenteric artery was taken out, cut into helicoids of 2 mm×25 mm and suspended in a 20 ml organ bath filled with a Krebs-Henseleit solution into which a mixed gas of 95% by volume of O2 and 5% by volume of CO2 was introduced and one end of the artery was connected with an isometric transducer. When a load of 1.5 g was applied to the artery, the contraction and the relaxation of the artery were recorded as a weight on the transducer (a product of Nippon Koden K.K., Japan, "FD Pickup TB-912T"). The relaxation of the mesenteric artery was observed by adding the isoquinolinesulfonyl derivatives and their pharmaceutically acceptable acid addition salts of this invention to the mesenteric artery at the condition of about one half of the maximum contraction with KCl at a KCl concentration of 15~20 mM. When the complete relaxation of the mesenteric artery was designated 100%, the concentration of the isoquinolinesulfonyl derivatives and their pharmaceutically acceptable acid addition salts which brought about a relaxation of 50% is shown in Table 12.

Row | EC50 [4] | Compound | change in vivo at 1 mg/kg ([1]; anesthetized dog) | LD50 [2] | change in vivo at 1 mg/kg [3] | further results
1 | – | NCCNS(=O)(=O)c1cccc2cnccc12 [Compound 1] | 45% | 108 mg/kg | 30% | –
2 | – | NCCCCNS(=O)(=O)c1cccc2cnccc12 [Compound 3] | 36% | 87 mg/kg | 33% | –
3 | – | CCCCN(CCCC)CCCNS(=O)(=O)c1cccc2cnccc12 [Compound 19] | 20% | 180 mg/kg | 25% | –
4 | – | CNS(=O)(=O)c1cccc2cnccc12 [Compound 25] | 29% | 137 mg/kg | 38% | –
5 | – | O=S(=O)(c1cccc2cnccc12)N1CCCC1 [Compound 33] | 37% | 150 mg/kg | 35% | –
6 | – | O=S(=O)(c1cccc2cnccc12)N1CCNCC1 [Compound 35] | 98% | 29 mg/kg | 69% | –
7 | – | CN1CCN(S(=O)(=O)c2cccc3cnccc23)CC1 [Compound 36] | 63% | 94 mg/kg | 35% | –
8 | – | CC1CN(S(=O)(=O)c2cccc3cnccc23)CCN1 (stereo not shown) [Compound 37] | 90% | 89 mg/kg | 65% | –
9 | – | CC1CN(S(=O)(=O)c2cccc3cnccc23)C(C)CN1 (stereo not shown) [Compound 40] | 110% | 42 mg/kg | 50% | –
10 | – | CC(C)CC1CN(S(=O)(=O)c2cccc3cnccc23)CCN1 (stereo not shown) [Compound 46] | 55% | 130 mg/kg | 32% | –
11 | – | CCCCCCN1CCN(S(=O)(=O)c2cccc3cnccc23)CC1 [Compound 51] | 68% | 108 mg/kg | 39% | –
12 | – | O=S(=O)(c1cccc2cnccc12)N1CCN(CC=Cc2ccccc2)CC1 [Compound 59] | 49% | 145 mg/kg | 25% | –
13 | 27 µM | O=C(C=Cc1ccccc1)N1CCN(S(=O)(=O)c2cccc3cnccc23)CC1 [Compound (60), 1-(5-isoquinolinesulfonyl)-4-cinnamoylpiperazine] | – | – | – | –
14 | 24 µM | O=C(c1ccco1)N1CCN(S(=O)(=O)c2cccc3cnccc23)CC1 [Compound (61), 1-(5-isoquinolinesulfonyl)-4-furoylpiperazine] | – | – | – | –
15 | 13 µM | CCOC(CN1CCN(S(=O)(=O)c2cccc3cnccc23)CC1)c1ccccc1 (stereo not shown) [Compound (63), 1-(5-isoquinolinesulfonyl)-4-(2-ethoxy-2-phenylethyl)piperazine] | – | – | – | –
16 | 13 µM | CN(CCNS(=O)(=O)c1cccc2cnccc12)Cc1ccccc1 [Compound (65), N-[2-(N-methyl-N-benzylamino)ethyl]-5-isoquinolinesulfonamide] | – | – | – | –
17 | 18 µM | CC(C)N(CCNS(=O)(=O)c1cccc2cnccc12)Cc1ccccc1 [Compound (67), N-[2-(N-isopropyl-N-benzylamino)ethyl]-5-isoquinolinesulfonamide] | – | – | – | –

Row | Compound | EC50 [4] | change in vivo at 1 mg/kg ([1]; anesthetized dog) | LD50 [2] | change in vivo at 1 mg/kg [3] | further results
18 | NCCNS(=O)(=O)c1cccc2cnccc12 [Compound (1), N-(2-aminoethyl)-5-isoquinolinesulfonamide] | 5 µM | – | – | – | Duration of increase in the blood flow volume in the vertebral artery ([1]; dog): at least 30 minutes
19 | O=S(=O)(c1cccc2cnccc12)N1CCNCC1 [Compound (35), 1-(5-isoquinolinesulfonyl)piperazine] | 0.6 µM | – | – | – | Increased Blood Flow Volume in Vertebral Artery ([1]; anesthetized dog): 98%; Increased Blood Flow Volume in Femoral Artery [3]: 65%
